Results from patent US20200253864A1, “VOLATILE ANESTHETIC COMPOSITIONS COMPRISING EXTRACTIVE SOLVENTS FOR REGIONAL ANESTHESIA AND/OR PAIN RELIEF” (The Board of Regents of the University of Texas System, priority 2008, published 2020).
Values joined by “and” are separate entries in the source; they are usually repeats but may differ in a detail not shown here. Identical values can stand only once.

Assays:
Sprague-Dawley rats = assay: Intrathecal injection of isoflurane or sevoflurane, hotplate test (thermal withdrawal latency); format: in vivo, rat; conditions: for Thermal withdrawal latency, Average (per rat): average of three tests, both paws; for Thermal withdrawal latency, Group Average: four rats; for Thermal withdrawal latency, Test 1 Left / Thermal withdrawal latency, Test 1 Right / Thermal withdrawal latency, Test 2 Left / Thermal withdrawal latency, Test 2 Right / Thermal withdrawal latency, Test 3 Left / Thermal withdrawal latency, Test 3 Right: individual rats, cutoff 25 seconds; for Adverse effects / Full recovery from the intrathecal injection (return to thermal latency baseline): intrathecal 2 microliters, rats; for Analgesic effect: intrathecally delivered dose of 2 microliters
Experimental: This study was designed to evaluate efficacy of direct intrathecal injection of anesthetic agent gases in reducing pain and providing analgesia. The study was conducted over a one (1) month period using anesthetic gases isoflurane and sevoflurane injected directly intrathecally or dissolved in saline as shown in the studies below. The subject animal used was the rat, since the rat has a well-established model of pain/analgesia testing. In particular, Sprague-Dawley rats weighing over 350gm were used. The rats were anesthetized with pentobarbital (50mg/kg), and the anesthetic depth of the animals was determined by corneal reflex and paw withdrawal reflex to a noxious stimulus.
[…]. A midline surgical dissection of the posterior neck muscles was performed to obtain access to the occipito-atlantoid membrane. This membrane was identified and then dissected. A sterile polyethylene catheter was introduced in the subarachnoid space until the lumbar enlargement of the spinal cord (approximately 7-8 cm measured in each animal). The surgical wound was closed, first suturing the neck muscles with 3-0 silk sutures and then closing the skin incision with staples.
After the surgery, the rats were moved to their cages and a radiant lamp was placed over the cages so that the rats would not undergo anesthetic-induced hypothermia. The rats were continuously monitored from the end of the surgery until they were fully awake. Rats showing any motor impairment after surgery were euthanized.
On the fifth day after surgery, those rats without wound infection or motor dysfunction were transported to the pain behavioral lab to enter the intrathecal study with volatile anesthetics. Twelve rats were selected for the study. All these rats had intrathecal catheters.
Isoflurane (1-chloro-2,2,2-trifluoroethyl difluoromethyl ether) and sevoflurane (fluoromethyl 2,2,2-trifluoro-1-(trifluoromethyl) ethyl ether) were used as the halogenated ether compounds. Both of these are halogenated volatile anesthetic agents, with isoflurane manufactured by Baxter and sevoflurane manufactured by Abbott Laboratories. The 12 rats were divided into 3 groups of four rats each for study A and B.
In the first group, 2 microliters of preservative-free normal saline was injected via the intrathecal catheter into each rat. This catheter was then flushed with preservative-free normal saline. Pain behavioral testing on this group was then performed.
In the second group, 2 microliters of isoflurane was injected via the intrathecal catheter into each rat. This catheter was also flushed with preservative-free normal saline. This group was then subjected to pain behavioral testing.
In the third group, 2 microliters of sevoflurane was injected via the intrathecal catheter into each rat. This catheter was also flushed with preservative-free normal saline. This group was then subjected to pain behavioral testing.
A “hotplate” behavioral test was used to evaluate pain perception and analgesia. The pain behavioral testing model used in these studies have been well established by Tony Yaksh. (See, e.g. Chaplan et al., 1994; Yaksh et al., 2001; Kim and Chung, 1992; Sorkin et al., 2001). This test involves determining how quickly a rat will withdraw its hind paw in response to a noxious stimulus such as a radiant heat source placed directly underneath its paw. This time for withdrawal is known as “thermal withdrawal latency”.
Rats were transferred for testing onto a modified Hargreaves apparatus with a heated glass plate maintained at 25° C. (see Hargreaves et al., 1988). A focused projection bulb below the plate was aimed at the mid-plantar surface of the paw. A photodiode-activated timer measured the withdrawal latency, and a cutoff time of 25 seconds was used to prevent tissue damage. Thermal withdrawal latency to radiant heat was measured at 5 minutes and 30 minutes after each intrathecal injection. Each paw was tested three times, and the results were averaged. […]

rats = assay: Plantar Heat Stimulation Test (paw withdrawal latency) after subcutaneous injection into hindpaw; format: in vivo, rat; conditions: for Antinociceptive effect, treated versus untreated (contralateral) paw: 100 μl subcutaneously into hindpaw (pure isoflurane n=4; 2% lidocaine n=3), P<0.05
Experimental: Intraplanar Administration of Isoflurane: 100 μl of pure form Isoflurane or 100 μl of 2% Lidocaine was injected subcutaneously into the planar surface of the hindpaw. Every rat, the contralateral hindpaw, served as its own control.
Measurement of Paw Withdrawal Latency: Rats are tested for response to thermal stimulation using radiant heat (Planar Analgesia Instrument, UgoBasile, Italy). After the rats acclimate for 15 min under the acrylic boxes that allow minimal movement, the heat source was positioned beneath the mid-plantar surface of the hind paw. Withdrawal latency is defined as the period of time from the beginning of the thermal stimulation to the brisk withdrawal of the hind paw. To avoid tissue damage, a cutoff time of 22s was set. Thermal stimulation was applied three times to each hind paw at an inter-stimulus interval of 3-5 min. Thermalnociceptive threshold was assessed before and after the treatment. An increase in the withdrawal threshold in the treated paw compared to the control paw is assessed as analgesic activity of the tested formulation.
Statistical Analysis: For statistical comparison, student paired t-test analysis was used. Differences were considered significant at P<0.05.

[1] = Stability/volatility: weighing remaining isoflurane in uncapped vials over time; format: physicochemical; conditions: for Effect of the solvent on the volatility of isoflurane: solution versus pure isoflurane (Table 6)
Experimental: The stability of isoflurane in the compositions was determined in two ways. Firstly, the compositions were examined for the presence of phase separation at the macroscopic level. Secondly, isoflurane content of the compositions were determined by weighing the remaining isoflurane in the composition when they were left uncapped over time. […] The other vials received varying amounts of isoflurane. They were left uncapped in the hood. Over time (0, 0.4, 1 , 16 , 24 h), the vials were weighed to see if the isoflurane stayed in the composition or evaporated. The amount evaporated over time in the vehicle was subtracted from that in the isoflurane composition, and therefore the amount of isoflurane in the vehicle was roughly determined at each time point.
Pure form of isoflurane is a volatile agent. In order to determine the volatility of isoflurane, two vials received the indicated amounts of pure form of isoflurane. The vials were placed in the chemical fume hood and left uncapped. The vials were weighed in the indicated times to determine the amount of evaporated isoflurane. As it is shown in the table below 0.7893g isoflurane was evaporated within 3 hrs whereas 3.4825 g isoflurane took approximately 8 hrs to evaporate completely. These amounts of isoflurane are similar to the amounts of isoflurane that were used to prepare isoflurane (iso) compositions as shown below.

[2] = 5 minutes after 2 microliters intrathecal
[3] = 5 minutes after 2 microliters intrathecal, saline control group 8.33
[4] = 30 minutes after 2 microliters intrathecal
[5] = 30 minutes after 2 microliters intrathecal, saline control group 8.40
[6] = 100 μl subcutaneously into hindpaw

Structure (SMILES) | Thermal withdrawal latency, Average (per rat) (Sprague-Dawley rats; [2]) | Thermal withdrawal latency, Group Average (Sprague-Dawley rats; [3]) [s] | Thermal withdrawal latency, Test 1 Left (Sprague-Dawley rats; [2]) | Thermal withdrawal latency, Test 1 Right (Sprague-Dawley rats; [2]) | Thermal withdrawal latency, Test 2 Left (Sprague-Dawley rats; [2]) | Thermal withdrawal latency, Test 2 Right (Sprague-Dawley rats; [2]) | Thermal withdrawal latency, Test 3 Left (Sprague-Dawley rats; [2]) | Thermal withdrawal latency, Test 3 Right (Sprague-Dawley rats; [2]) | Thermal withdrawal latency, Average (per rat) (Sprague-Dawley rats; [4]) | Thermal withdrawal latency, Group Average (Sprague-Dawley rats; [5]) [s] | Thermal withdrawal latency, Test 1 Left (Sprague-Dawley rats; [4]) | Thermal withdrawal latency, Test 1 Right (Sprague-Dawley rats; [4]) | Thermal withdrawal latency, Test 2 Left (Sprague-Dawley rats; [4]) | Thermal withdrawal latency, Test 2 Right (Sprague-Dawley rats; [4]) | Thermal withdrawal latency, Test 3 Left (Sprague-Dawley rats; [4]) | Thermal withdrawal latency, Test 3 Right (Sprague-Dawley rats; [4]) | Adverse effects (Sprague-Dawley rats) | Full recovery from the intrathecal injection (return to thermal latency baseline) (Sprague-Dawley rats) [min] | Analgesic effect (Sprague-Dawley rats) | Start of the antinociceptive effect (rats; [6]) [min] | other results
FC(F)OC(Cl)C(F)(F)F (stereo not drawn) [Isoflurane, 1-chloro-2,2,2-trifluoroethyl difluoromethyl ether] | 19.25 s and 18.21 s and 18.63 s and 17.95 s | 18.51 | 17.23 s and 19.24 s and 18.11 s and 19.71 s | 19.81 s and 17.19 s and 19.20 s and 20.31 s | 18.91 s and 17.65 s and 19.80 s and 17.18 s | 20.38 s and 15.88 s and 17.90 s and 18.34 s | 18.82 s and 20.72 s and 20.07 s and 16.38 s | 20.34 s and 18.59 s and 16.71 s and 16.75 s | 9.48 s and 8.93 s and 10.52 s and 9.21 s | 9.53 | 9.12 s and 6.35 s and 8.37 s and 10.27 s | 9.87 s and 9.08 s and 6.32 s and 9.41 s | 9.02 s and 8.22 s and 8.45 s and 7.04 s | 10.59 s and 7.81 s and 9.48 s and 6.76 s | 9.77 s and 11.62 s and 10.48 s and 10.32 s | 8.54 s and 10.49 s and 11.03 s and 7.88 s | None of the rats in the study experienced adverse effects | 30 | analgesic effect | 25 | Duration of the antinociceptive effect (rats; [6]): continued throughout the experiment; Antinociceptive effect, treated versus untreated (contralateral) paw (rats): significant (P<0.05) antinociceptive effect; % remaining iso, 0 h ([1]; 0 h): 100%; Time for isoflurane to evaporate ([1]; 0.7893 g pure isoflurane, uncapped): ≤ 3 h; Time for isoflurane to evaporate completely ([1]; 3.4825 g pure isoflurane, uncapped): approximately 8 hrs; % remaining iso, 5 h ([1]; 5 h): 38%; % remaining iso, 7 h ([1]; 7 h): 13%; % remaining iso, 8 h ([1]; 8 h): 3%
CN1CCCC1=O [NMP, N-Methyl-2-pyrrolidone] |  |  |  |  |  |  |  |  |  |  |  |  |  |  |  |  |  |  |  |  | Effect of the solvent on the volatility of isoflurane [1]: reduced the volatility of isoflurane
FCOC(C(F)(F)F)C(F)(F)F [Sevoflurane, fluoromethyl 2,2,2-trifluoro-1-(trifluoromethyl) ethyl ether] | 14.65 s and 13.82 s and 13.14 s and 12.98 s | 13.65 | 14.90 s and 13.38 s and 12.34 s and 11.83 s | 13.81 s and 17.19 s and 14.98 s and 10.31 s | 15.11 s and 12.31 s and 11.03 s and 12.66 s | 13.23 s and 14.29 s and 13.93 s and 13.20 s | 14.83 s and 12.01 s and 14.16 s and 12.31 s | 16.03 s and 13.75 s and 12.37 s and 17.59 s | 8.61 s and 8.35 s and 8.89 s and 9.54 s | 8.84 | 8.54 s and 6.87 s and 8.44 s and 10.93 s | 9.23 s and 7.38 s and 10.05 s and 9.55 s | 8.29 s and 7.99 s and 11.74 s and 6.68 s | 7.30 s and 8.92 s and 9.32 s and 8.67 s | 8.87 s and 8.10 s and 6.13 s and 12.11 s | 9.43 s and 10.83 s and 7.66 s and 9.27 s | None of the rats in the study experienced adverse effects | 30 | analgesic effect |  | 
CCN(CC)CC(=O)Nc1c(C)cccc1C [lidocaine] |  |  |  |  |  |  |  |  |  |  |  |  |  |  |  |  |  |  |  | 5 | Peak of the antinociceptive effect (rats; [6]): 15 min; Return of the antinociceptive effect to baseline levels (rats; [6]): 45 min; Antinociceptive effect, treated versus untreated (contralateral) paw (rats): significant antinociceptive effect
CC(O)CO (stereo not drawn) [propylene glycol] |  |  |  |  |  |  |  |  |  |  |  |  |  |  |  |  |  |  |  |  | Reduction of isoflurane volatility compared with NMP ([1]; Table 10 versus Table 8): not as good as NMP; Effect of the solvent on the volatility of isoflurane [1]: reduced the volatility of isoflurane
